From patent publication US11040028B2, “Penicinotam derivative, preparation method and use thereof” (OCEAN UNIVERSITY OF CHINA, priority 2017, dated 2021)
Like-named read-outs stand apart in the source and are kept apart here.

Experiments:
Type in all cases: cell-based
[1] = test system: human fibrosarcoma cells HT-1080; test: Anti-fibrosis activity test: inhibition of proliferation of human fibrosarcoma cells HT-1080 (CCK-8); settings: Homo sapiens, HT-1080, 48 h
Outline: (§1)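 Seed 2×10^4 cells/mL; adhere 24 h, 37° C/5% CO2. Compounds, serial concentrations, triplicate, 48 h. CCK-8 2 h, A450. IR=(1−Ai/Ao)×100% vs blank; IC50 fitted. Pirfenidone as positive control.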

[2] = test system: human lung fibroblasts HFL1; test: Anti-fibrosis activity test: inhibition of proliferation of human lung fibroblasts HFL1 (CCK-8); settings: Homo sapiens, HFL1, 48 h
Outline: as §1

[3] = test system: BHK-21 cells; test: Anti-fibrosis activity test: inhibition of BHK-21 cell proliferation (CCK-8); settings: Mesocricetus auratus, BHK-21, 48 h
Outline: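 Proliferation of BHK-21 cells is measured by CCK-8 at 450 nm following 48 h compound exposure at several concentrations. Inhibition is expressed relative to blank control and IC50 is computed from it.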

[4] = test system: human embryonic lung fibroblast IMR-90; test: Anti-fibrosis activity test: inhibition of proliferation of human embryonic lung fibroblast IMR-90 (CCK-8)
Outline: as §1

[5] = test system: human dermal fibroblasts CCC-ESF-1; test: Anti-fibrosis activity test: inhibition of proliferation of human dermal fibroblasts CCC-ESF-1 (CCK-8); settings: Fibroblast
Outline: as §1

[6] = test system: mouse macrophages (RAW264.7); test: Lipopolysaccharide-induced NO secretion in macrophages (Griess); settings: RAW264.7, LPS 1 μg/ml, a/b isomers given as first/second symbol, read-out: IC50 (μM), inhibition of lipopolysaccharide-induced NO secretion in macrophages
Outline: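 LPS 1 μg/ml, 24 h, RAW264.7 (DMEM/10% FBS); cpds at varied concs. Supernatant NO by Griess, A548; % inhibition vs blank medium.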

[7] = test system: NF-κB; test: Immunological activity test: inhibition of NF-κB activity; settings: initial concentration of 30 μM; a/b isomers given as first/second symbol; read-out: IC50 (μM), inhibitory activity against NF-κB
Outline: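 Parthenolide as positive control; starting test concentration 30 μM; inhibition of NF-κB activity analysed further to yield IC50.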

[8] = test system: cardiac fibroblast RAT-iCell-C002; test: Anti-fibrosis activity test: inhibition of proliferation of cardiac fibroblast RAT-iCell-C002 (CCK-8); settings: Cardiac fibroblast, 48 h
Outline: as §1

[9] = test system: human hepatic stellate cells LX-2; test: Anti-fibrosis activity test: inhibition of proliferation of human hepatic stellate cells LX-2 (CCK-8); settings: Homo sapiens, 48 h
Outline: as §1

[10] = human fibrosarcoma cells HT-1080, CCK-8, 48 hours
[11] = human lung fibroblasts HFL1, CCK-8, 48 hours
[12] = CCK-8, 48 hours after administration
[13] = human embryonic lung fibroblast IMR-90, CCK-8, 48 hours
[14] = human dermal fibroblasts CCC-ESF-1, CCK-8, 48 hours
[15] = cardiac fibroblast RAT-iCell-C002, CCK-8, 48 hours
[16] = human hepatic stellate cells LX-2, CCK-8, 48 hours
[17] = Homo sapiens, IMR-90 cells, 48 h, CCK-8
[18] = Homo sapiens, CCC-ESF-1 cells, 48 h, CCK-8

IC50 [1, 10] [mM]	IC50 ([6]; Mus musculus, RAW264.7, 24 h) [µM]	IC50 [7] [µM]	IC50 ([6]; 24 hours) [µM]	IC50 ([1]; HT-1080 cells, 48 h, CCK-8) [mM]	Structure (SMILES)	IC50 [2, 11] [mM]	IC50 [3, 12] [mM]	IC50 [4, 13] [mM]	IC50 [5, 14] [mM]	IC50 [8, 15] [mM]	IC50 [9, 16] [mM]	IC50 ([2]; HFL1 cells, 48 h, CCK-8) [mM]	IC50 ([3]; 48 h, CCK-8) [mM]	IC50 [4, 17] [mM]	IC50 [5, 18] [mM]	IC50 ([8]; RAT-iCell-C002 cells, CCK-8) [mM]	IC50 ([9]; LX-2, 48 h, LX-2 cells, CCK-8) [mM]
< 0.05	1 to 10	1 to 10			C=CCn1c2c(c(=O)c3ccccc31)C(=O)n1cccc1-2 [Compound 6a, 4-Allyl-9H-pyrrolizino[1,2-b]quinoline-9,10(4H)-dione]	0.05 to 5	0.05 to 5	0.05 to 5	0.05 to 5	0.05 to 5	0.05 to 5						
0.05 to 5	1 to 10	1 to 10			C=CCOc1c2c(nc3ccccc13)-c1cccn1C2=O [Compound 6b, 9-(allyloxy)-10H-pyrrolizino[1,2-b]quinolin-10-one]	0.05 to 5	0.05 to 5	0.05 to 5	5 to 20	0.05 to 5	0.05 to 5						
0.05 to 5		1 to 10			N#Cc1ccc2c(c1)c(=O)c1c(n2Cc2ccc(-c3ccccc3)cc2)-c2cccn2C1=O [Compound 628a, 4-([1,1′-Biphenyl]-4-ylmethyl)-9,10-dioxo-4,10-dihydro-9H-pyrrolizino[1,2-b]quinoline-7-carbonitrile]	5 to 20	0.05 to 5	0.05 to 5	0.05 to 5	0.05 to 5	0.05 to 5						
0.05 to 5		1 to 10			N#Cc1ccc2c(c1)c(=O)c1c(n2Cc2ccc(-c3ccccc3C#N)cc2)-c2cccn2C1=O [Compound 629a, 4-((2′-Cyano-[1,1′-biphenyl]-4-yl)methyl)-9,10-dioxo-4,10-dihydro-9H-pyrrolizino[1,2-b]quinoline-7-carbonitrile]	0.05 to 5	< 0.05	0.05 to 5	< 0.05	0.05 to 5	0.05 to 5						
		1 to 10		0.05 to 5	Cc1ccc2c(=O)c3c([nH]c2c1)-c1cccn1C3=O [Compound 714a, 6-Methyl-9H-pyrrolizino[1,2-b]quinoline-9,10(4H)-dione]							0.05 to 5	0.05 to 5	0.05 to 5	0.05 to 5	0.05 to 5	0.05 to 5

The remaining lines, values behind:

Structure (SMILES)	IC50 [1, 10] [mM]	IC50 ([6]; Mus musculus, RAW264.7, 24 h) [µM]	IC50 [7] [µM]	IC50 ([6]; 24 hours) [µM]	IC50 ([1]; HT-1080 cells, 48 h, CCK-8) [mM]	IC50 [2, 11] [mM]	IC50 [3, 12] [mM]	IC50 [4, 13] [mM]	IC50 [5, 14] [mM]	IC50 [8, 15] [mM]	IC50 [9, 16] [mM]	IC50 ([2]; HFL1 cells, 48 h, CCK-8) [mM]	IC50 ([3]; 48 h, CCK-8) [mM]	IC50 [4, 17] [mM]	IC50 [5, 18] [mM]	IC50 ([8]; RAT-iCell-C002 cells, CCK-8) [mM]	IC50 ([9]; LX-2, 48 h, LX-2 cells, CCK-8) [mM]
N#Cc1c(N2CCNCC2)ccc2c(=O)c3c(n(Cc4ccc(F)cc4)c12)-c1cccn1C3=O [Compound 486a, 4-(4-Fluorobenzyl)-9,10-dioxo-6-(piperazin-1-yl)-4,10-dihydro-9H-pyrrolizino[1,2-b]quinoline-5-carbonitrile]			10 to 50	0.1 to 1													
N#Cc1c(N2CCNCC2)ccc2c(OCc3ccc(F)cc3)c3c(nc12)-c1cccn1C3=O [Compound 486b, 9-((4-fluorobenzyl)oxy)-10-oxo-6-(piperazin-1-yl)-10H-pyrrolizino[1,2-b]quinoline-5-carbonitrile]			1 to 10	1 to 10													
N#Cc1ccc2nc3c(c(OCc4ccc(-c5ccccc5)cc4)c2c1)C(=O)n1cccc1-3 [Compound 628b, 9-([1,1′-biphenyl]-4-ylmethoxy)-10-oxo-10H-pyrrolizino[1,2-b]quinoline-7-carbonitrile]	0.05 to 5		1 to 10			0.05 to 5	0.05 to 5	0.05 to 5	0.05 to 5	0.05 to 5	0.05 to 5						
O=C1c2c(n(Cc3cc(C(F)(F)F)cc(C(F)(F)F)c3)c3cc(N4CCNCC4)ccc3c2=O)-c2cccn21 [Compound 631a, 4-(3,5-Bis(trifluoromethyl)benzyl)-6-(piperazin-1-yl)-9H-pyrrolizino[1,2-b]quinoline-9,10(4H)-dione]	0.05 to 5		1 to 10			0.05 to 5	0.05 to 5	0.05 to 5	0.05 to 5	0.05 to 5	0.05 to 5						
O=C1c2c(nc3ccccc3c2OCc2ccc(-c3ccccc3)cc2)-c2cccn21 [Compound 674b]			1 to 10	1 to 10													
Cc1ccc2c(O)c3c(nc2c1)-c1cccn1C3=O [Compound 714b, 9-hydroxy-6-methyl-10H-pyrrolizino[1,2-b]quinolin-10-one]			0.001 to 0.1		0.05 to 5							0.05 to 5	0.05 to 5	0.05 to 5	0.05 to 5	0.05 to 5	0.05 to 5
